Inconclusive results and toxic doses are left out. No stated cut-off is given here; in the data, active means T/C of 150% or more; inactive means T/C below 125%.
Test system: L1210 leukemia ip in BDF1 mice, survival T/C
Experiment: NCI In Vivo Anticancer Drug Screen. Data for tumor model L1210 Leukemia (intraperitoneal) in B6D2F1 (BDF1) mice
Details: endpoint: mean survival time, higher = longer survival
Procedure, shortened: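 Transplanted-tumor mice were given test agent; controls received vehicle only. Survival readings from the two groups were divided (treated over control).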

[1] = dose: 100.0 mg/kg/injection, schedule: Q04DX003 (ip), vehicle: Klucel (hydroxypropylcellulose) (HPC)
[2] = dose: 200.0 mg/kg/injection, schedule: Q04DX003 (ip), vehicle: Klucel (hydroxypropylcellulose) (HPC)
[3] = dose: 400.0 mg/kg/injection, schedule: Q04DX003 (ip), vehicle: Klucel (hydroxypropylcellulose) (HPC)

Measured: T/C

O=C(O)/C=C/c1cc2c(cc1[N+](=O)[O-])OCO2
inactive: dose: 100.0 mg/kg/injection, schedule: Q01DX009 (ip), vehicle: Klucel (hydroxypropylcellulose) (HPC) 98 % of control | [1] 86 % of control | dose: 200.0 mg/kg/injection, schedule: Q01DX009 (ip), vehicle: Klucel (hydroxypropylcellulose) (HPC) 93 % of control | [2] 95 % of control | dose: 400.0 mg/kg/injection, schedule: Q01DX009 (ip), vehicle: Klucel (hydroxypropylcellulose) (HPC) 88 % of control | [3] 100 % of control

COc1ccc2c(c1)CCC1C2=CC(=O)CC1c1ccco1 (stereo not given)
inactive: [1] 102 % of control | [2] 93 % of control | [3] 88 % of control

CC(C)C1NC(=O)NC1=O (stereo not given)
inactive: dose: 100.0 mg/kg/injection, schedule: Q01DX009 (ip), vehicle: saline 98 % of control | dose: 100.0 mg/kg/injection, schedule: Q04DX003 (ip), vehicle: saline 103 % of control | dose: 200.0 mg/kg/injection, schedule: Q01DX009 (ip), vehicle: saline 105 % of control | dose: 200.0 mg/kg/injection, schedule: Q04DX003 (ip), vehicle: saline 101 % of control | dose: 400.0 mg/kg/injection, schedule: Q01DX009 (ip), vehicle: saline 103 % of control | dose: 400.0 mg/kg/injection, schedule: Q04DX003 (ip), vehicle: saline 97 % of control

Cc1ccc(S(=O)(=O)OC2CCC(OS(=O)(=O)c3ccc(C)cc3)C3CCCCC23)cc1 (stereo not given)
inactive: dose: 100.0 mg/kg/injection, schedule: Q01DX001 (ip), vehicle: carboxymethylcellulose (CMC) 88 % of control | dose: 200.0 mg/kg/injection, schedule: Q01DX001 (ip), vehicle: carboxymethylcellulose (CMC) 90 % of control | dose: 400.0 mg/kg/injection, schedule: Q01DX001 (ip), vehicle: carboxymethylcellulose (CMC) 88 % of control

NC(=O)N1C(c2ccccc2)C1c1ccccc1 (stereo not given)
inactive: dose: 12.5 mg/kg/injection, schedule: Q01DX009 (ip), vehicle: Klucel (hydroxypropylcellulose) (HPC) 100 % of control | dose: 12.5 mg/kg/injection, schedule: Q04DX003 (ip), vehicle: Klucel (hydroxypropylcellulose) (HPC) 93 % of control | dose: 25.0 mg/kg/injection, schedule: Q01DX009 (ip), vehicle: Klucel (hydroxypropylcellulose) (HPC) 97 % of control | dose: 25.0 mg/kg/injection, schedule: Q04DX003 (ip), vehicle: Klucel (hydroxypropylcellulose) (HPC) 100 % of control | dose: 50.0 mg/kg/injection, schedule: Q01DX009 (ip), vehicle: Klucel (hydroxypropylcellulose) (HPC) 100 % of control | dose: 50.0 mg/kg/injection, schedule: Q04DX003 (ip), vehicle: Klucel (hydroxypropylcellulose) (HPC) 92 % of control

CCOC(=O)/C=C(/C)N
inactive: dose: 100.0 mg/kg/injection, schedule: Q04DX002 (ip), vehicle: saline with Tween-80 95 % of control | dose: 200.0 mg/kg/injection, schedule: Q04DX002 (ip), vehicle: saline with Tween-80 91 % of control | dose: 400.0 mg/kg/injection, schedule: Q04DX002 (ip), vehicle: saline with Tween-80 95 % of control

CC(C)(C=O)C(=O)Nc1ccccc1
inactive: dose: 100.0 mg/kg/injection, schedule: Q04DX002 (ip), vehicle: saline 103 % of control | dose: 200.0 mg/kg/injection, schedule: Q04DX002 (ip), vehicle: saline 106 % of control | dose: 400.0 mg/kg/injection, schedule: Q04DX002 (ip), vehicle: saline 103 % of control

From PubChem BioAssay AID248 (DTP/NCI, 2004)
